Reference: patent US20090304692A1, “TRIAZINE COMPOUNDS AS PI3 KINASE AND MTOR INHIBITORS” (Wyeth, priority 2008, published 2009)
Read-outs that look alike come from different tables or passages of the source.

Columns and labels:
PI3K-γ = PI3K-γ (Homo sapiens, UniProt P48736); assay: PI3K-gamma fluorescence polarization assay
Human mTOR (FLAG-TOR) = Human mTOR (FLAG-TOR) (Homo sapiens, UniProt P42345); assay: mTOR kinase assay (DELFIA format, purified enzyme); type: biochemical; conditions: read-out: IC50 mTOR
PI3K-α = PI3K-α (Homo sapiens, UniProt P42336); assay: PI3K-alpha fluorescence polarization assay
[1] = test system: human prostate LNCap tumor cell line; assay: In vitro cell culture growth assay (MTS), LNCap; conditions: Homo sapiens, LNCaP, 72 h, read-out: IC50 LNCap

Chain of PI3K-γ (P48736 whole entry, species assumed): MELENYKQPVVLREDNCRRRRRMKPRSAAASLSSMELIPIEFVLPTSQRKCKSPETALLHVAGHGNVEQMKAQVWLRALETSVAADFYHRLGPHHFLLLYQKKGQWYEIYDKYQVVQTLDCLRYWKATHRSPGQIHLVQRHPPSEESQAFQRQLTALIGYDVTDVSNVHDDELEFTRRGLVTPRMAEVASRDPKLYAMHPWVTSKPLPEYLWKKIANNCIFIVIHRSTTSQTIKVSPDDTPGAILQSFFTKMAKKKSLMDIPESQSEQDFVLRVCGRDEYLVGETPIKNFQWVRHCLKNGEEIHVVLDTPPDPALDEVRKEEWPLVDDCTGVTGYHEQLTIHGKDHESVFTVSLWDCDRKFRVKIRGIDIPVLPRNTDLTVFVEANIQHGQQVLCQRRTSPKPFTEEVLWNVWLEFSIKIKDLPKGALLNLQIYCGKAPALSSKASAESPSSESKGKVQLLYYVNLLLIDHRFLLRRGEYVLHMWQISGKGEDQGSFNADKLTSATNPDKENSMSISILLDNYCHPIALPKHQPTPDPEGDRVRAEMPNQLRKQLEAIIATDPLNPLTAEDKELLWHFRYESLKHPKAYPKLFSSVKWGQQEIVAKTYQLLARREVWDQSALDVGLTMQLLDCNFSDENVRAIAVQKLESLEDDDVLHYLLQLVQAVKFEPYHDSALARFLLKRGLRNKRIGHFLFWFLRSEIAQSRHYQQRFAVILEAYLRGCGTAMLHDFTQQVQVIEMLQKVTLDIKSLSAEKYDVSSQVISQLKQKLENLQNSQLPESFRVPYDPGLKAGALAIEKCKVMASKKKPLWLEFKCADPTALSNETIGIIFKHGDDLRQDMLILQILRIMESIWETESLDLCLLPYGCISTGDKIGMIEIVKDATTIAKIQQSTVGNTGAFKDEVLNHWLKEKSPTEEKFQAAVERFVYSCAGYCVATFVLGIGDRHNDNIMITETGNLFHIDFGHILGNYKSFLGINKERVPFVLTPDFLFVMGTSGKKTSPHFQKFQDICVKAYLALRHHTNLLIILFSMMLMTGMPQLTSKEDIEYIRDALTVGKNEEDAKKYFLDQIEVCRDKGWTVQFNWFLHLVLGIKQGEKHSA
Chain of Human mTOR (FLAG-TOR) (P42345 1360-2549 limits assumed): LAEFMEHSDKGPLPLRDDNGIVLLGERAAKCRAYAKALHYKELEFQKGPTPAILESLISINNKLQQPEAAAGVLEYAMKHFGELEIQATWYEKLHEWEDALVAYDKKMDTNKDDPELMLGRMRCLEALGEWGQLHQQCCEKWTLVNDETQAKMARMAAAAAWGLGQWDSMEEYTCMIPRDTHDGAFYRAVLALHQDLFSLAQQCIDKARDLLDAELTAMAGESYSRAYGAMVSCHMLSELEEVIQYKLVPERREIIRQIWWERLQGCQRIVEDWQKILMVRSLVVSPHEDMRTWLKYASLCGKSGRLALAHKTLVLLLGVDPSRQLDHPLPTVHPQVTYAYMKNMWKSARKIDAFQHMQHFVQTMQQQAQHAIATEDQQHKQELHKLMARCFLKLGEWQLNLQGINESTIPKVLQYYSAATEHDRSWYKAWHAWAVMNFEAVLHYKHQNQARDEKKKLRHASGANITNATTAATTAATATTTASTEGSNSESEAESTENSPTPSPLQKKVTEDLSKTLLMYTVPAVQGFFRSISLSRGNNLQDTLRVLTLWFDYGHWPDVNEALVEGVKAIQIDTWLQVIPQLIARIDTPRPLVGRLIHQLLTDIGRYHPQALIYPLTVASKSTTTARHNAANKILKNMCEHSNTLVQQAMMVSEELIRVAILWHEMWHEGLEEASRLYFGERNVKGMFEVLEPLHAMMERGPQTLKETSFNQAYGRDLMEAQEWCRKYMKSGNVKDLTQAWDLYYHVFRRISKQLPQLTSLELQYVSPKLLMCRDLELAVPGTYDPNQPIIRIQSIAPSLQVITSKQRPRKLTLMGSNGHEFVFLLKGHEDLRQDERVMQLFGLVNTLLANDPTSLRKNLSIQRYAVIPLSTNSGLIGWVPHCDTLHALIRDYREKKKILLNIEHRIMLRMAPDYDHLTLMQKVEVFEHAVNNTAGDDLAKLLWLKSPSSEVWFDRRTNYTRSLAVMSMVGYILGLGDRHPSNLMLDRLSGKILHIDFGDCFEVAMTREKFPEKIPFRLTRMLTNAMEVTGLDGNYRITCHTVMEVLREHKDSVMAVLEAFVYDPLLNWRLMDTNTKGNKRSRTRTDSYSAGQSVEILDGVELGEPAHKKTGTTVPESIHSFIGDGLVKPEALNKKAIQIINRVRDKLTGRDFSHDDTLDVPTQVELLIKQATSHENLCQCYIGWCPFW
Chain of PI3K-α (P42336 whole entry, species assumed): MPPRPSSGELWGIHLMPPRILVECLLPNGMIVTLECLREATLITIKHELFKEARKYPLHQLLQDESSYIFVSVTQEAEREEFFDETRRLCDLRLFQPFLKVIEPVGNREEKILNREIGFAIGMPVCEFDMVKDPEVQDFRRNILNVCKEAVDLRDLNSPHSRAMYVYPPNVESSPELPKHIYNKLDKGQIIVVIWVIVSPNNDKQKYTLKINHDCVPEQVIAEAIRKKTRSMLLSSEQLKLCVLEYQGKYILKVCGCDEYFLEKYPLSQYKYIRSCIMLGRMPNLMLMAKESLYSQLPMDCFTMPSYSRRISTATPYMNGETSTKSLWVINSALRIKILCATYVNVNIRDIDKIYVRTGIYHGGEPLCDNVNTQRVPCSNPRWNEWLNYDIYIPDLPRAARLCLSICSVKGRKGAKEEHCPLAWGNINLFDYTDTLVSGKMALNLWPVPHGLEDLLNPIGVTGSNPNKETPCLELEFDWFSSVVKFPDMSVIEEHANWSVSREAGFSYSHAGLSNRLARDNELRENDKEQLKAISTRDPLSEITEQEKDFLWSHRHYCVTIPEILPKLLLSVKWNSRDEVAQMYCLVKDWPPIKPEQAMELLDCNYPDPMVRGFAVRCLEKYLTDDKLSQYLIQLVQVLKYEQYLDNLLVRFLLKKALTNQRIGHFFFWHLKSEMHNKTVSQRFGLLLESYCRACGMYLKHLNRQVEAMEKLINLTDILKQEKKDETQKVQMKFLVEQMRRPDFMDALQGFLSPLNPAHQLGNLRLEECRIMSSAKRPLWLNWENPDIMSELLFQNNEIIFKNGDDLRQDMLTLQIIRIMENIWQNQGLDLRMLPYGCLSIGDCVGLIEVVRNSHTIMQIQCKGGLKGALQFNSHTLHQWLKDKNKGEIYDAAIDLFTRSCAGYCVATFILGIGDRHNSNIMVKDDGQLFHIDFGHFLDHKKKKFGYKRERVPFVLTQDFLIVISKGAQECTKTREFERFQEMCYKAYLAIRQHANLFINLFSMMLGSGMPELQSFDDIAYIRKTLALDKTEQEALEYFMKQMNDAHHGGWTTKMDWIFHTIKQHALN
Chain of PI3K-α (P27986 whole entry partner, species assumed): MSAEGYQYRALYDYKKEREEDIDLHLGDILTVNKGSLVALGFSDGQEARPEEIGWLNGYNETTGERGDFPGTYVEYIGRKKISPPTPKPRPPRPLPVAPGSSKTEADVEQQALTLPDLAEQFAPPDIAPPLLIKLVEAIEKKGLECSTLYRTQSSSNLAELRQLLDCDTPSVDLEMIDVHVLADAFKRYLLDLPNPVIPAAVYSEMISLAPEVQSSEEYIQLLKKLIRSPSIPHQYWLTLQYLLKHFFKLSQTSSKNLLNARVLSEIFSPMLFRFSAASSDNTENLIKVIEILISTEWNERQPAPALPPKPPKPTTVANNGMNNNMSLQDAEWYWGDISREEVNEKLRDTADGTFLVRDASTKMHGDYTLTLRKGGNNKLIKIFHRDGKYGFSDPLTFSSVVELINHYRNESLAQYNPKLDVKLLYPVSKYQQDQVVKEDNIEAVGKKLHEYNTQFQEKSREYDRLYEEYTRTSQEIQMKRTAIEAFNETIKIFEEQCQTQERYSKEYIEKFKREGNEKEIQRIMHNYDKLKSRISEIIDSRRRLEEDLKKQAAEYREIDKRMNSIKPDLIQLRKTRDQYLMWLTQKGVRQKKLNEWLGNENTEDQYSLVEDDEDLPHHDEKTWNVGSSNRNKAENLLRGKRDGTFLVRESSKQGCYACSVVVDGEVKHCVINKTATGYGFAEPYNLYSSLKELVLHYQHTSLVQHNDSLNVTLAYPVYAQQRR

Row | Structure (SMILES) | IC50 (PI3K-γ; read-out: IC50 PI3Kγ) | IC50 (Human mTOR (FLAG-TOR)) | IC50 (PI3K-α; read-out: IC50 PI3Kα) | IC50 [1] | IC50 (PI3K-γ) | IC50 (PI3K-α)
1 | O=C(Nc1ccncc1)Nc1ccc(-c2nc(N3CCC(O)CC3)nc(N3CC4CCC(C3)O4)n2)cc1 [Example 116, 1-{4-[4-(4-hydroxypiperidin-1-yl)-6-(8-oxa-3-azabicyclo[3.2.1]oct-3-yl)-1,3,5-triazin-2-yl]phenyl}-3-pyridin-4-ylurea] | 2310 nM | 2.7 nM | 1740 nM | 70 nM |  | 
2 | O=C(Nc1ccncc1)Nc1ccc(-c2nc(N3CCC(NCc4ccccc4)CC3)nc(N3CC4CCC(C3)O4)n2)cc1 [Example 117, 1-(4-{4-[4-(benzylamino)piperidin-1-yl]-6-(8-oxa-3-azabicyclo[3.2.1]oct-3-yl)-1,3,5-triazin-2-yl}phenyl)-3-pyridin-4-ylurea] | 3000 nM | 83 nM | 177 nM | 700 nM |  | 
3 | CNC1CCN(c2nc(-c3ccc(NC(=O)Nc4ccncc4)cc3)nc(N3CC4CCC(C3)O4)n2)CC1 [Example 118, 1-(4-{4-[4-(methylamino)piperidin-1-yl]-6-(8-oxa-3-azabicyclo[3.2.1]oct-3-yl)-1,3,5-triazin-2-yl}phenyl)-3-pyridin-4-ylurea] | 297 nM | 195 nM | 379 nM | 3000 nM |  | 
4 | CCNC1CCN(c2nc(-c3ccc(NC(=O)Nc4ccncc4)cc3)nc(N3CC4CCC(C3)O4)n2)CC1 [Example 119, 1-(4-{4-[4-(ethylamino)piperidin-1-yl]-6-(8-oxa-3-azabicyclo[3.2.1]oct-3-yl)-1,3,5-triazin-2-yl}phenyl)-3-pyridin-4-ylurea] | 7530 nM | 140 nM | 1240 nM | 2800 nM |  | 
5 | CN(C)CCNC1CCN(c2nc(-c3ccc(NC(=O)Nc4ccncc4)cc3)nc(N3CC4CCC(C3)O4)n2)CC1 [Example 120, 1-{4-[4-(4-{[2-(dimethylamino)ethyl]amino}piperidin-1-yl)-6-(8-oxa-3-azabicyclo[3.2.1]oct-3-yl)-1,3,5-triazin-2-yl]phenyl}-3-pyridin-4-ylurea] | 1550 nM | 79 nM | 262 nM | 1200 nM |  | 
6 | CN1CCN(C2CCN(c3nc(-c4ccc(NC(=O)Nc5ccncc5)cc4)nc(N4CC5CCC(C4)O5)n3)CC2)CC1 [Example 122, 1-(4-(4-(8-oxa-3-azabicyclo[3.2.1]octan-3-yl)-6-(4-(4-methylpiperazin-1-yl)piperidin-1-yl)-1,3,5-triazin-2-yl)phenyl)-3-(pyridin-4-yl)urea] | 9500 nM | 74.5 nM | 1160 nM | 900 nM |  | 
7 | O=C(Nc1ccncc1)Nc1ccc(-c2nc(N3CCC(NCCO)CC3)nc(N3CC4CCC(C3)O4)n2)cc1 [Example 123, 1-(4-(4-(8-oxa-3-azabicyclo[3.2.1]octan-3-yl)-6-(4-(2-hydroxyethylamino)piperidin-1-yl)-1,3,5-triazin-2-yl)phenyl)-3-(pyridin-4-yl)urea] | 6350 nM | 115 nM | 760 nM | 4100 nM |  | 
8 | O=C(Nc1ccncc1)Nc1ccc(-c2nc(N3CCC(NCCN4CCOCC4)CC3)nc(N3CC4CCC(C3)O4)n2)cc1 [Example 124, 1-(4-(4-(8-oxa-3-azabicyclo[3.2.1]octan-3-yl)-6-(4-(2-morpholinoethylamino)piperidin-1-yl)-1,3,5-triazin-2-yl)phenyl)-3-(pyridin-4-yl)urea] | 9650 nM | 155 nM | 1650 nM | 1950 nM |  | 

Other lines, results leading:

Row | IC50 (PI3K-γ; read-out: IC50 PI3Kγ) | IC50 (Human mTOR (FLAG-TOR)) | IC50 (PI3K-α; read-out: IC50 PI3Kα) | IC50 [1] | IC50 (PI3K-γ) | IC50 (PI3K-α) | Structure (SMILES)
9 | 8750 nM | 16 nM | 840 nM | 1000 nM |  |  | COC(=O)CNC1CCN(c2nc(-c3ccc(NC(=O)Nc4ccncc4)cc3)nc(N3CC4CCC(C3)O4)n2)CC1 [Example 125, Methyl 2-(1-(4-(8-oxa-3-azabicyclo[3.2.1]octan-3-yl)-6-(4-(3-pyridin-4-ylureido)phenyl)-1,3,5-triazin-2-yl)piperidin-4-ylamino)acetate]
10 | 5510 nM | 19.5 nM | 510 nM | 1300 nM |  |  | NC(=O)CNC1CCN(c2nc(-c3ccc(NC(=O)Nc4ccncc4)cc3)nc(N3CC4CCC(C3)O4)n2)CC1 [Example 126, 2-(1-(4-(8-oxa-3-azabicyclo[3.2.1]octan-3-yl)-6-(4-(3-pyridin-4-ylureido)phenyl)-1,3,5-triazin-2-yl)piperidin-4-ylamino)acetamide]
11 | 4730 nM | 51.5 nM | 1390 nM | 1350 nM |  |  | CC(C)(C)OC(=O)CNC1CCN(c2nc(-c3ccc(NC(=O)Nc4ccncc4)cc3)nc(N3CC4CCC(C3)O4)n2)CC1 [Example 127, Tert-butyl 2-(1-(4-(8-oxa-3-azabicyclo[3.2.1]octan-3-yl)-6-(4-(3-pyridin-4-ylureido)phenyl)-1,3,5-triazin-2-yl)piperidin-4-ylamino)acetate]
12 | 1000 nM | 9 nM | 574 nM | 120 nM |  |  | COC(=O)Nc1ccc(-c2nc(-c3ccc(NC(=O)Nc4ccc(N5CCN(C)CC5)cc4)cc3)nc(N3CC4CCC(C3)O4)n2)cc1 [Example 145, methyl(4-{4-[4-({[4-(4-methylpiperazin-1-yl)phenyl]carbamoyl}amino)phenyl]-6-(8-oxa-3-azabicyclo[3.2.1]oct-3-yl)-1,3,5-triazin-2-yl}phenyl)carbamate]
13 | 6830 nM | 6 nM | 1930 nM | 1000 nM |  |  | CN1CCN(c2ccc(NC(=O)Nc3ccc(-c4nc(-c5ccc(NC(=O)Nc6ccc(N7CCN(C)CC7)cc6)cc5)nc(N5CC6CCC(C5)O6)n4)cc3)cc2)CC1 [Example 147, N′,N′″-{[6-(8-oxa-3-azabicyclo[3.2.1]oct-3-yl)-1,3,5-triazine-2,4-diyl]di-4,1-phenylene}bis{1-[4-(4-methylpiperazin-1-yl)phenyl]urea}]
14 | 620 nM | 8 nM | 300 nM | 680 nM |  |  | CN1CCN(c2ccc(NC(=O)Nc3ccc(-c4nc(-c5ccc(NC(=O)Nc6ccncc6)cc5)nc(N5CC6CCC(C5)O6)n4)cc3)cc2)CC1 [Example 148, 1-[4-(4-methylpiperazin-1-yl)phenyl]-3-{4-[4-(8-oxa-3-azabicyclo[3.2.1]oct-3-yl)-6-{4-[(pyridin-4-ylcarbamoyl)amino]phenyl}-1,3,5-triazin-2-yl]phenyl}urea]
15 | 1400 nM | 80 nM | 889 nM | 32000 nM |  |  | NCCNc1nc(-c2ccc(NC(=O)Nc3cccnc3)cc2)nc(N2CC3CCC(C2)O3)n1 [Example 149, 1-(4-{4-[(2-aminoethyl)amino]-6-(8-oxa-3-azabicyclo[3.2.1]oct-3-yl)-1,3,5-triazin-2-yl}phenyl)-3-pyridin-3-ylurea]
16 |  | 5 nM |  | 290 nM | > 10000 nM | 832 nM | O=C(Nc1ccc(-c2nc(Nc3ccccc3)nc(N3CC4CCC(C3)O4)n2)cc1)Nc1cccnc1 [Example 150, 1-{4-[4-anilino-6-(8-oxa-3-azabicyclo[3.2.1]oct-3-yl)-1,3,5-triazin-2-yl]phenyl}-3-pyridin-3-ylurea]
17 | 3820 nM | 64 nM | 275 nM | 22000 nM |  |  | O=C(Nc1ccc(-c2nc(NC3CNC3)nc(N3CC4CCC(C3)O4)n2)cc1)Nc1cccnc1 [Example 154, 1-{4-[4-(azetidin-3-ylamino)-6-(8-oxa-3-azabicyclo[3.2.1]oct-3-yl)-1,3,5-triazin-2-yl]phenyl}-3-pyridin-3-ylurea]
